This note sets out measurements from patent publication US12595250B2, “Substituted pyrimidine compounds as multifunctional radical quenchers and their uses” (ARIZONA BOARD OF REGENTS ON BEHALF OF ARIZONA STATE …, priority 2016, dated 2026).

The nature of the series: In vitro microsomal stability assay. In kind it is in vitro ADME. As to conditions: pH 7.4, bovine liver microsomes 1 mg/mL, 25 μM compound, 37° C., NADPH, read-out: Recovery (%) of compound after reaction with activated microsomes. How it is done:
Liver tissues were diced into small pieces and then washed with isotonic sucrose buffer (0.25 M sucrose, 10 mM Tris-HCl, 0.5 mM EDTA, pH 7.8). The diced tissue was passed through a precooled meat grinder and mixed with three-fold ice cold sucrose buffer supplemented with a mixture of protease inhibitors. The suspension was homogenized in a Waring blender for 25 s at high speed. At this stage, the pH of the suspension was adjusted to 7.4 with 1 M Tris base. The homogenate was centrifuged for 20 min at 1200×g to remove cell debris. The supernatant suspension was homogenized in a tight fitting Teflon-glass Potter-Elvehjem homogenizer and then centrifuged twice at 10,000×g for 20 min, collecting the supernatant each time to remove mitochondria. The floating fat layer was carefully removed by filtering the supernatant through layers of cheesecloth. The supernatant was centrifuged at 150,000×g for 30 min (Beckman-Coulter ultracentrifuge, XL-100K-01, SW 55 Ti rotor). The pellet (microsomal fraction) was suspended in 0.25 M sucrose buffer containing 10 mM Tris-HCl, pH 7.4, with 20% (v/v) glycerol, and centrifuged once more at 150,000×g. The pellet was resuspended in sucrose buffer with 20% (v/v) glycerol. The protein concentration after resuspension was approximately 20 mg/mL, as determined by BCA protein assay (Pierce Chemical) using bovine serum albumin as a standard. Aliquots of microsomal suspensions were stored at −80° C.
In vitro metabolic stability was determined in bovine liver microsomes at a protein concentration of 1 mg/mL in 50 mM phosphate buffer mixture, pH 7.4, containing 5 mM MgCl2 in a final incubation volume of 0.5 mL. Each test compound was added to a final concentration of 25 μM. This mixture was pre-warmed to 37° C. prior to starting the reaction by the addition of β-NADPH to 1 mM final concentration. After incubation for 30 min at 37° C., the reaction was quenched by the addition of 1 mL of propanol, vortexed for 2 min and centrifuged at 15,000×g for 10 min to pellet the precipitated protein. The resulting supernatant was pipetted out and then concentrated under diminished pressure. A parallel incubation of the test compound with deactivated microsomes (quenched immediately with propanol) lacking β-NADPH served as a control and was run for each test agent to detect microsome-independent degradation. The sample was reconstituted in 130 μL MeOH and centrifuged again at 15,000×g for 3 min. The supernatant was removed and 4 μM fluorene was added as an internal standard before HPLC analysis. HPLC analyses were performed on a Zorbax SB-Phenyl reversed phase analytical (150×4.6 mm, 5 m) HPLC column using a mobile phase consisting of MeOH/H2O. A linear gradient of (50:50 MeOH/H2O→100:0 MeOH/H2O) was employed over a period of 14 min at a flow rate of 1 mL/min. Metabolic stability was expressed as percent of control remaining. The experiments were carried out in duplicate to verify the results.
A general note: Liver microsomes are vesicles of endoplasmic reticulum, rich in cytochrome P450 enzymes.

As for `CCCCCCCCCCCCCCc1nc(OC2CCC2)nc(OC2CCC2)c1O` [Compound 3b, 2,4-Dicyclobutanoxy-6-tetradecylpyrimidin-5-ol], the recovery at 30 min, 25 μM was found to be 72 ± 3%.
